≈ marks a conversion by molar mass, not a printed value. A value given as a limit tells only on which side of the number the result lay.

For experiment [1], the system named is Coxsackievirus B4. As to the kind of experiment: Antiviral activity against coxsackie B4 in Vero cell culture lines. The class given is functional. The note with it: Enterovirus B.
For the next experiment, the system named is Human alphaherpesvirus 1. As to the kind of experiment: Antiviral activity against HSV-1(KOS) strain in primary rabbit kidney (PRK) / embryonic skin-muscle (E6SM) fibroblast culture lines. The experiment is classed as functional. The note with it: Human alphaherpesvirus 1, Muscle tissue.
Another experiment has as its system Sindbis virus. As to the kind of experiment: Antiviral activity against sindbis virus in Vero cell culture lines. The experiment is classed as functional.
The test system of another experiment is Vaccinia virus. As to the kind of experiment: Antiviral activity against vaccinia virus (VV) in primary rabbit kidney (PRK) / embryonic skin-muscle (E6SM) fibroblast culture lines. The class given is functional. The conditions noted are these: Orthopoxvirus vaccinia, Muscle tissue.
A further experiment deals with Semliki Forest virus. As to the kind of experiment: Antiviral activity against semliki forest virus (SFV) in Vero cell culture lines. The class given is functional.
The test system of experiment [2] is Vesicular stomatitis virus. As to the kind of experiment: Antiviral activity against vesicular stomatitis virus (VSV) in HeLa cell culture lines,. The experiment is classed as functional.
Experiment [3] relates to Coxsackievirus B4. As to the kind of experiment: Antiviral activity against coxsackie B4 virus in HeLa cell culture lines. The class given is functional. The note with it: Enterovirus B.
A further experiment concerns Poliovirus 1. As to the kind of experiment: Antiviral activity against polio virus type 1 in HeLa cell culture lines. The class given is functional. The conditions noted are these: Enterovirus C.
The test system of the next experiment is Human respirovirus 3. As to the kind of experiment: Antiviral activity against parainfluenza virus type 3 in Vero cell culture lines. The class given is functional.
Experiment [4] has as its system Human immunodeficiency virus 1. As to the kind of experiment: Antiviral activity against (HIV-1) in MT-4 cells Value in parentheses is inhibitory concentration for cell growth (MT-4). The experiment is classed as functional, MT4.
In experiment [5] the test system is Vesicular stomatitis virus. As to the kind of experiment: Antiviral activity against vesicular stomatitis virus (VSV) in primary rabbit kidney (PRK) / embryonic skin-muscle (E6SM) fibroblast culture lines. The experiment is classed as functional. The note with it: Muscle tissue.
A further experiment relates to Human alphaherpesvirus 2. As to the kind of experiment: Antiviral activity against HSV-2(G) strain in primary rabbit kidney (PRK) / embryonic skin-muscle (E6SM) fibroblast culture lines. The experiment is classed as functional. The conditions noted are these: Human alphaherpesvirus 2, Muscle tissue.
In experiment [6] the test system is Mammalian orthoreovirus 1. As to the kind of experiment: Antiviral activity against reovirus type 1 in Vero cell culture lines. The class given is functional.

Take `Nc1ncnc2c(C3O[C@H](CSCCC(N)C(=O)O)[C@@H](O)[C@H]3O)n[nH]c12` (some centres undefined): the MIC was more than 100 µg/mL in the experiment on Coxsackievirus B4 [1]; 200 µg/mL (≈ 520 µM) in the experiment on Human alphaherpesvirus 1; more than 100 µg/mL in the experiment on Sindbis virus; 100 µg/mL (≈ 260 µM) against Vaccinia virus; more than 100 µg/mL in the experiment on Semliki Forest virus; 150 µg/mL (≈ 390 µM) in [2]. Also, the MIC in the experiment with Coxsackievirus B4 [3] is more than 400 µg/mL; with Poliovirus 1, more than 400 µg/mL; against Human respirovirus 3, 30 µg/mL (≈ 78 µM); in [4], more than 4 µg/mL; in experiment [5] it was 20 µg/mL (≈ 52 µM); against Human alphaherpesvirus 2 it was 400 µg/mL (≈ 1040 µM). Moreover, the MIC in experiment [6] was more than 100 µg/mL.
On to `CCOC(=O)C(CCSC[C@H]1OC(n2ccc3c(N)ncnc32)[C@H](O)[C@@H]1O)NC(C)=O` (some centres undefined), for which the MIC against Coxsackievirus B4 [1] is 20 µg/mL (≈ 44.1 µM); with Human alphaherpesvirus 1 it was 70 µg/mL (≈ 154 µM); in the experiment with Sindbis virus it was more than 70 µg/mL; with Vaccinia virus, 15 µg/mL (≈ 33.1 µM); against Semliki Forest virus, more than 100 µg/mL; in [2], more than 20 µg/mL. In addition, the MIC against Coxsackievirus B4 [3] was 70 µg/mL (≈ 154 µM); in the experiment with Poliovirus 1 it was 70 µg/mL (≈ 154 µM); in the experiment with Human respirovirus 3 it was more than 40 µg/mL; in [4], more than 4 µg/mL; in experiment [5], 5 µg/mL (≈ 11 µM); with Human alphaherpesvirus 2, 20 µg/mL (≈ 44.1 µM). In experiment [6], the MIC was more than 30 µg/mL.
Regarding `Nc1ncnc2c([C@H]3C[C@@H](O)[C@@H](CO)O3)n[nH]c12`, the MIC is 300 µg/mL (≈ 1190 µM) in the experiment with Coxsackievirus B4 [1]; more than 400 µg/mL in the experiment with Human alphaherpesvirus 1; more than 400 µg/mL with Sindbis virus; more than 400 µg/mL in the experiment on Vaccinia virus; more than 400 µg/mL against Semliki Forest virus; more than 400 µg/mL in experiment [2]. The MIC in the experiment with Coxsackievirus B4 [3] was more than 400 µg/mL; against Poliovirus 1, more than 400 µg/mL; against Human respirovirus 3, more than 400 µg/mL; in [4], more than 100 µg/mL; in experiment [5] it was more than 400 µg/mL; with Human alphaherpesvirus 2, more than 400 µg/mL. Moreover, in [6], the MIC is more than 400 µg/mL.
Take `Nc1nccc2c1ncn2[C@H]1CC[C@@H](CO)O1`: the MIC against Coxsackievirus B4 [1] is more than 100 µg/mL; against Human alphaherpesvirus 1, more than 200 µg/mL; against Sindbis virus, more than 100 µg/mL; in the experiment on Vaccinia virus, more than 100 µg/mL; against Semliki Forest virus it was more than 100 µg/mL; in [2], more than 200 µg/mL. Further, the MIC in the experiment on Coxsackievirus B4 [3] is more than 200 µg/mL; against Poliovirus 1, more than 200 µg/mL; against Human respirovirus 3, more than 100 µg/mL; in experiment [4], more than 100 µg/mL; in [5], more than 100 µg/mL; in the experiment with Human alphaherpesvirus 2 it was more than 100 µg/mL. In [6], this compound gave an MIC of more than 100 µg/mL.
Regarding `CC(C)OC(=O)C(N)CCSC[C@H]1OC(n2ccc3c(N)ncnc32)[C@H](O)[C@@H]1O` (some centres undefined), the MIC in the experiment on Coxsackievirus B4 [1] is more than 100 µg/mL; against Human alphaherpesvirus 1, more than 10 µg/mL; against Sindbis virus it was more than 40 µg/mL; in the experiment on Vaccinia virus, 0.2 µg/mL (≈ 0.47 µM); against Semliki Forest virus, more than 100 µg/mL; in experiment [2], 7 µg/mL (≈ 16.5 µM). Further, the MIC was more than 40 µg/mL against Coxsackievirus B4 [3]; more than 100 µg/mL in the experiment with Poliovirus 1; 20 µg/mL (≈ 47 µM) in the experiment with Human respirovirus 3; more than 1.6 µg/mL in experiment [4]; 7 µg/mL (≈ 16.5 µM) in [5]; more than 10 µg/mL against Human alphaherpesvirus 2. This compound also yielded an MIC in experiment [6] of more than 40 µg/mL.
For `Nc1ncnc2c1ncn2[C@H]1C[C@H](O)[C@@H](CO)O1` [DEOXYADENOSINE], the MIC is more than 200 µg/mL against Coxsackievirus B4 [1]; more than 150 µg/mL against Human alphaherpesvirus 1; more than 200 µg/mL in the experiment with Sindbis virus; 150 µg/mL (≈ 597 µM) against Vaccinia virus; more than 200 µg/mL in the experiment with Semliki Forest virus; more than 200 µg/mL in experiment [2]. In addition, the MIC is more than 200 µg/mL in the experiment with Coxsackievirus B4 [3]; more than 200 µg/mL against Poliovirus 1; more than 200 µg/mL against Human respirovirus 3; more than 20 µg/mL in experiment [4]; more than 200 µg/mL in experiment [5]; 100 µg/mL (≈ 398 µM) in the experiment with Human alphaherpesvirus 2. For the same compound, the MIC in [6] is more than 200 µg/mL.
Take `Nc1ncnc2c(C3O[C@H](CCl)[C@@H](O)[C@H]3O)n[nH]c12` (some centres undefined): the MIC is 70 µg/mL (≈ 245 µM) against Coxsackievirus B4 [1]; more than 200 µg/mL with Human alphaherpesvirus 1; more than 100 µg/mL against Sindbis virus; 300 µg/mL (≈ 1050 µM) in the experiment with Vaccinia virus; more than 100 µg/mL against Semliki Forest virus; more than 200 µg/mL in experiment [2]. Further, the MIC was more than 400 µg/mL with Coxsackievirus B4 [3]; more than 400 µg/mL against Poliovirus 1; 70 µg/mL (≈ 245 µM) in the experiment on Human respirovirus 3; more than 100 µg/mL in experiment [4]; more than 400 µg/mL in experiment [5]; more than 200 µg/mL with Human alphaherpesvirus 2. The compound also had an MIC in experiment [6] of more than 100 µg/mL.
Take `Nc1ncnc2c1ncn2[C@@H]1O[C@H](CO)C[C@H]1O` [CORDYCEPIN]: the MIC against Coxsackievirus B4 [1] was more than 100 µg/mL; in the experiment on Human alphaherpesvirus 1 it was more than 40 µg/mL; against Sindbis virus, more than 100 µg/mL; in the experiment with Vaccinia virus it was more than 100 µg/mL; in the experiment on Semliki Forest virus, more than 100 µg/mL; in experiment [2] it was more than 100 µg/mL. Further, the MIC with Coxsackievirus B4 [3] is more than 100 µg/mL; in the experiment with Poliovirus 1, more than 100 µg/mL; in the experiment with Human respirovirus 3, more than 100 µg/mL; in experiment [4], more than 4 µg/mL; in experiment [5] it was more than 40 µg/mL; with Human alphaherpesvirus 2, more than 40 µg/mL. This compound yielded an MIC in [6] of more than 100 µg/mL.
For the compound `Nc1nccc2c1ncn2[C@@H]1O[C@H](CSCCC(N)C(=O)O)C[C@H]1O` (some centres undefined), the MIC (against Coxsackievirus B4 [1]; with Human alphaherpesvirus 1; in the experiment with Sindbis virus; against Vaccinia virus; in the experiment on Semliki Forest virus; in experiment [2]) was more than 400 µg/mL throughout. The MIC with Coxsackievirus B4 [3] was more than 400 µg/mL; against Poliovirus 1 it was more than 400 µg/mL; in the experiment with Human respirovirus 3, more than 400 µg/mL; in [4], more than 100 µg/mL; in experiment [5] it was more than 200 µg/mL; against Human alphaherpesvirus 2, more than 400 µg/mL. Besides, in experiment [6], the MIC was more than 400 µg/mL.
On to `NC(=O)c1ncn([C@@H]2O[C@H](CO)[C@@H](O)[C@H]2O)n1` [RIBAVIRIN], for which the MIC is more than 70 µg/mL in the experiment on Coxsackievirus B4 [1]; more than 400 µg/mL with Human alphaherpesvirus 1; 200 µg/mL (≈ 819 µM) with Sindbis virus; 30 µg/mL (≈ 123 µM) in the experiment with Vaccinia virus; 200 µg/mL (≈ 819 µM) in the experiment on Semliki Forest virus; 20 µg/mL (≈ 81.9 µM) in experiment [2]. Besides, the MIC was 40 µg/mL (≈ 164 µM) against Coxsackievirus B4 [3]; 70 µg/mL (≈ 287 µM) against Poliovirus 1; 70 µg/mL (≈ 287 µM) in the experiment with Human respirovirus 3; more than 20 µg/mL in [4]; 50 µg/mL (≈ 205 µM) in [5]; more than 400 µg/mL in the experiment on Human alphaherpesvirus 2. The same compound displayed an MIC in [6] of 40 µg/mL (≈ 164 µM).
Consider `Nc1ncnc2c1ncn2[C@@H]1O[C@H](CCl)C[C@H]1O`, for which the MIC against Coxsackievirus B4 [1] is more than 40 µg/mL; in the experiment on Human alphaherpesvirus 1 it was more than 200 µg/mL; with Sindbis virus it was more than 40 µg/mL; in the experiment on Vaccinia virus, more than 200 µg/mL; in the experiment on Semliki Forest virus, more than 40 µg/mL; in experiment [2], more than 200 µg/mL. The MIC against Coxsackievirus B4 [3] is more than 200 µg/mL; with Poliovirus 1, more than 200 µg/mL; in the experiment with Human respirovirus 3 it was more than 40 µg/mL; in experiment [4] it was more than 100 µg/mL; in experiment [5], more than 400 µg/mL; in the experiment with Human alphaherpesvirus 2, more than 100 µg/mL. Further, in [6], the MIC is more than 40 µg/mL.
On to `Nc1ncnc2c1ccn2C1O[C@H](CSCCC(NC(=O)C(F)(F)F)C(=O)O)[C@@H](O)[C@H]1O` (some centres undefined), for which the MIC against Coxsackievirus B4 [1] was more than 400 µg/mL; with Human alphaherpesvirus 1, more than 200 µg/mL; against Sindbis virus, more than 400 µg/mL; in the experiment with Vaccinia virus, 20 µg/mL (≈ 41.7 µM); against Semliki Forest virus, more than 400 µg/mL; in experiment [2], more than 400 µg/mL. The MIC is more than 400 µg/mL with Coxsackievirus B4 [3]; more than 400 µg/mL in the experiment with Poliovirus 1; more than 400 µg/mL against Human respirovirus 3; more than 20 µg/mL in experiment [4]; more than 200 µg/mL in [5]; more than 200 µg/mL in the experiment on Human alphaherpesvirus 2. In experiment [6], this compound had an MIC of more than 400 µg/mL.
Turning to `COC(=O)C(N)CCSC[C@H]1OC(n2ccc3c(N)ncnc32)[C@H](O)[C@@H]1O` (some centres undefined), the MIC with Coxsackievirus B4 [1] was more than 100 µg/mL; in the experiment with Human alphaherpesvirus 1 it was more than 100 µg/mL; in the experiment on Sindbis virus, more than 200 µg/mL; against Vaccinia virus, 4 µg/mL (≈ 10.1 µM); with Semliki Forest virus, more than 200 µg/mL; in experiment [2] it was 20 µg/mL (≈ 50.3 µM). Also, the MIC is more than 200 µg/mL with Coxsackievirus B4 [3]; more than 200 µg/mL with Poliovirus 1; more than 200 µg/mL in the experiment on Human respirovirus 3; more than 20 µg/mL in experiment [4]; 20 µg/mL (≈ 50.3 µM) in [5]; 20 µg/mL (≈ 50.3 µM) against Human alphaherpesvirus 2. The same compound came in with an MIC in experiment [6] of more than 200 µg/mL.

Values taken from ChEMBL document CHEMBL1126104, “Synthesis and antiviral activity of some new S-adenosyl-L-homocysteine derivatives” (1992).
